The text below walks through data of US9045445B2, “Glycine transporter-1 inhibitors, methods of making them, and uses thereof” (Albany Molecular Research, Inc., priority 2010, dated 2015).

pIC50: −log10 of the molar value. Structures can show the parent of a compound that is named as a salt.

Test [1] has as its target T1, glycine transporter-1 (GlyT-1) (Homo sapiens, UniProt P48067).
T1 construct: JAR cells (ATCC#HTB-144), which endogenously express GlyT-1; host or cells: JAR human choriocarcinoma cells
T1 sequence (P48067 1-706): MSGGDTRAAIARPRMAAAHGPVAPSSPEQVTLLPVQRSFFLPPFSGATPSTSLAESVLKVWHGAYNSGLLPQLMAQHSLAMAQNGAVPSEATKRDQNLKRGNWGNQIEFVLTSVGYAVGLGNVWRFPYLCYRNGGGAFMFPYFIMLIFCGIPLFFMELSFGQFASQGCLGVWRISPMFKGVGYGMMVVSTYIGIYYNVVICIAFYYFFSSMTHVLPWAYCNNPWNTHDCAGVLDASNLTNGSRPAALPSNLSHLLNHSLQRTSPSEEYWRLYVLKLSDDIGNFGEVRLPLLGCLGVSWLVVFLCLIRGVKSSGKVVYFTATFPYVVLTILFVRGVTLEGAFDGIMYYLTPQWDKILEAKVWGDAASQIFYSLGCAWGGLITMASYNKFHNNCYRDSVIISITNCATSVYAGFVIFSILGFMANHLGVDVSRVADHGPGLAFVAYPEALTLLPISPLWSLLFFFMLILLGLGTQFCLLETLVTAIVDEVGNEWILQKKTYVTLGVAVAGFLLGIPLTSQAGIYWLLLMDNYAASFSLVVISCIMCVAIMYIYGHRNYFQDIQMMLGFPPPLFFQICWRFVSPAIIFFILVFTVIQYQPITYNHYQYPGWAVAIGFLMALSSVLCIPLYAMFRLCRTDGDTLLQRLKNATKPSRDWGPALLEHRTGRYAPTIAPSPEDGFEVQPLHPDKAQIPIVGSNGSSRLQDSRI
The test is described as follows: [14C]glycine uptake assay in JAR cells endogenously expressing GlyT-1 (scintillation proximity). The format is cell-based. The note with it: JAR cells, [14C]glycine 5 μM, 3 hour incubation; read-out: GlyT-1 IC50. The essentials: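 Human choriocarcinoma JAR cells (endogenous GlyT-1) attached overnight, then pre-incubated 10 min at room temperature with compound in pH 7.4 Hepes uptake buffer containing 5 mM alanine and 0.75% DMSO. Uptake of 5 μM [14C]glycine over 3 h at 37 °C read by scintillation proximity; IC50 from four-parameter fit of nine-point curves.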

The target of test [2] is T2, glycine transporter-2 (GlyT-2) (Homo sapiens, UniProt Q9Y345).
T2 construct: expressed in transfected cells
T2 sequence (Q9Y345 1-797): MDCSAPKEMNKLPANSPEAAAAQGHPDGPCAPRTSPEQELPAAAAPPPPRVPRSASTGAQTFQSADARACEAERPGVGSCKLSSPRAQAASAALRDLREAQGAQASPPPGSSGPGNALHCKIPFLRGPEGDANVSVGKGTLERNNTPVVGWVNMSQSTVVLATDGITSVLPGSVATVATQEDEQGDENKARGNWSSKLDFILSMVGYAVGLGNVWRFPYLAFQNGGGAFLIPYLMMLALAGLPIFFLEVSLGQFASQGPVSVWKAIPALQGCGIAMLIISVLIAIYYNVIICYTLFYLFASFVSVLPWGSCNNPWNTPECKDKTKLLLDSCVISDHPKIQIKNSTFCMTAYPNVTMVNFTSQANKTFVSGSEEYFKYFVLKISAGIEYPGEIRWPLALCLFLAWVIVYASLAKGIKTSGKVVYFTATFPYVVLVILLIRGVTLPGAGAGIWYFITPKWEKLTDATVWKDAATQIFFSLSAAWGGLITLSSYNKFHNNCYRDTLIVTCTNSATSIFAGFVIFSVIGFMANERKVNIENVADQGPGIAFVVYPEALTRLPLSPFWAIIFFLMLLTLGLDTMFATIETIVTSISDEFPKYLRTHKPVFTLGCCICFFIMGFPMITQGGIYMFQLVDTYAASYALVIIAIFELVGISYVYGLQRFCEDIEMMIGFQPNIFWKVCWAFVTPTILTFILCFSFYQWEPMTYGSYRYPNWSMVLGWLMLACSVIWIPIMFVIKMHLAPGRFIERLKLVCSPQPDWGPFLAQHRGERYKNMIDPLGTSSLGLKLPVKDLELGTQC
The test is described as follows: [14C]glycine uptake assay in HEK-GlyT-2 transfected cells. It is filed as cell-based. The note with it: HEK-GlyT-2 cells.

With `CCCS(=O)(=O)N1CCN(C2(CNC(=O)c3ccccc3Cl)CCC(F)(F)CC2)CC1` [compound 139, 2-Chloro-N-((4,4-difluoro-1-(4-(propylsulfonyl)piperazin-1-yl)cyclohexyl)methyl) benzamide Hydrochloride], the pIC50 in test [1] is 7.27; in test [2], under 4.12.
Consider `Cc1cc(F)ccc1C(=O)NCC1(N2CCN(S(=O)(=O)CC3CC3)CC2)CCCCCC1` [compound 85, N-((1-(4-(Cyclopropylmethyl-sulfonyl)piperazin-1-yl)cycloheptyl)methyl)-4-fluoro-2-methylbenzamide Hydrochloride], for which the pIC50 in test [1] was 6.74; in test [2], under 4.12.
Consider `CCCS(=O)(=O)N1CCN(C2(CNC(=O)c3c(C)cccc3C)CCOCC2)CC1` [compound 120, 2,6-Dimethyl-N-((4-(4-(propylsulfonyl)piperazin-1-yl)tetrahydro-2H-pyran-4-yl)methyl)benzamide Hydrochloride], for which the pIC50 is 6.76 in test [1] and 4.38 in test [2].
As for `Cc1cc(F)ccc1C(=O)NCC1(N2CCN(S(=O)(=O)c3cn(C)cn3)CC2)CCCCC1` [compound 102, 4-Fluoro-2-methyl-N-((1-(4-(1-methyl-1H-imidazol-4-ylsulfonyl)piperazin-1-yl)cyclohexyl)methyl) benzamide Hydrochloride], the results for the pIC50 in test [1] and in test [2] were 8.00 and under 4.12, respectively.
For `Cn1cc(S(=O)(=O)N2CCN(C3(CNC(=O)c4ccc(F)cc4C(F)(F)F)CCC(F)(F)CC3)CC2)nn1` [compound 233, N-((4,4-Difluoro-1-(4-(1-methyl-1H-1,2,3-triazol-4-ylsulfonyl)piperazin-1-yl)cyclohexyl)methyl)-4-fluoro-2-(trifluoromethyl)benzamide Hydrochloride], the pIC50 in test [1] was 9.00; in test [2] it was under 4.12.
In turn, `CCCS(=O)(=O)N1CCN(C2(CNC(=O)c3ccccc3)CCCCC2)CC1` [compound 24, N-((1-(4-(Propylsulfonyl)piperazin-1-yl)cyclohexyl)methyl) benzamide Hydrochloride] gave a pIC50 in test [2] of under 4.12.
The compound `CCCS(=O)(=O)N1CCN(C2(CNC(=O)c3ccc(Cl)cc3Cl)CCOCC2)CC1` [compound 118, 2,4-Dichloro-N-((4-(4-(propylsulfonyl)piperazin-1-yl)tetrahydro-2H-pyran-4-yl)methyl)benzamide Hydrochloride] had a pIC50 in test [2] of under 4.12.
In the case of `CCS(=O)(=O)N1CCN(C2(CNC(=O)c3c(F)cc(OC)cc3F)CCC(F)(F)CC2)CC1` [compound 216, N-((1-(4-(Ethylsulfonyl)piperazin-1-yl)-4,4-difluorocyclohexyl)methyl)-2,6-difluoro-4-methoxybenzamide Hydrochloride], the pIC50 in test [1] is 5.89.
As for `CCCS(=O)(=O)N1CCN(C2(CNC(=O)c3ccc(C)cc3)CCCCCC2)CC1` [compound 57, 4-Methyl-N-((1-(4-(propylsulfonyl)piperazin-1-yl)cycloheptyl)methyl) benzamide Hydrochloride], in test [1], the pIC50 was 6.05.
The same measure, in the same setting: as for `CCCS(=O)(=O)N1CCN(C2(CNC(=O)c3ccc(Cl)cc3)CCCC2)CC1` [compound 73, 4-Chloro-N-((1-(4-(propylsulfonyl)piperazin-1-yl)cyclopentyl)methyl) benzamide Hydrochloride], the figure is 5.70; as for `Cn1cnc(S(=O)(=O)N2CCN(C3(CNC(=O)c4c(F)cccc4Cl)CCC(F)(F)CC3)CC2)c1` [compound 180, 2-Chloro-N-((4,4-difluoro-1-(4-(1-methyl-1H-imidazol-4-ylsulfonyl)piperazin-1-yl)cyclohexyl)methyl)-6-fluorobenzamide Hydrochloride], 8.10; as for `CCCS(=O)(=O)N1CCN(C2(CNC(=O)c3c(Cl)cccc3OC(F)(F)F)CCC(F)(F)CC2)CC1` [compound 159, 2-Chloro-N-((4,4-difluoro-1-(4-(propylsulfonyl)piperazin-1-yl)cyclohexyl)methyl)-6-(trifluoromethoxy) benzamide Hydrochloride], 7.54.
For the compound `Cn1cc(S(=O)(=O)N2CCN(C3(CNC(=O)c4c(Cl)cccc4OC(F)(F)F)CCC(F)(F)CC3)CC2)nn1` [compound 191, 2-Chloro-N-((4,4-difluoro-1-(4-(1-methyl-1H-1,2,3-triazol-4-ylsulfonyl)piperazin-1-yl)cyclohexyl)methyl)-6-(trifluoromethoxy) benzamide Hydrochloride], the pIC50 in test [1] was 9.00.
As to `CN(C)S(=O)(=O)N1CCN(C2(CNC(=O)c3ccc(C(F)(F)F)cc3Cl)CCC(F)(F)CC2)CC1` [compound 273, 2-Chloro-N-((1-(4-(N,N-dimethylsulfamoyl)piperazin-1-yl)-4,4-difluorocyclohexyl)methyl)-4-(trifluoromethyl)benzamide Hydrochloride], the pIC50 in test [1] is 6.46.
Take `CCCS(=O)(=O)N1CCN(C2(CNC(=O)c3c(F)cc(F)cc3F)CCC(F)(F)CC2)CC1` [compound 144, N-((4,4-Difluoro-1-(4-(propylsulfonyl)piperazin-1-yl)cyclohexyl)methyl)-2,4,6-trifluorobenzamide Hydrochloride]: the pIC50 in test [1] was 7.34.
Regarding `Cn1ccc(S(=O)(=O)N2CCN(C3(CNC(=O)c4ccc(C(F)(F)F)cc4Cl)CCC(F)(F)CC3)CC2)n1` [compound 283, 2-Chloro-N-((4,4-difluoro-1-(4-(1-methyl-1H-pyrazol-3-ylsulfonyl)piperazin-1-yl)cyclohexyl)methyl)-4-(trifluoromethyl)benzamide Hydrochloride], the pIC50 in test [1] is 5.62.
Regarding `CCCS(=O)(=O)N1CCN(C2(CNC(=O)c3c(Cl)cccc3OC)CCC(F)(F)CC2)CC1` [compound 152, 2-Chloro-N-((4,4-difluoro-1-(4-(propylsulfonyl)piperazin-1-yl)cyclohexyl)methyl)-6-methoxybenzamide Hydrochloride], in test [1], the pIC50 was 7.47.
`CCCS(=O)(=O)N1CCN(C2(CNC(=O)c3ccc(Cl)cc3OC(F)F)CCC(F)(F)CC2)CC1` [compound 249, 4-Chloro-N-((4,4-difluoro-1-(4-(propylsulfonyl)piperazin-1-yl)cyclohexyl)methyl)-2-(difluoromethoxy) benzamide Hydrochloride]: in test [1], the pIC50 was 7.43.
Take `CCCS(=O)(=O)N1CCN(C2(CNC(=O)c3ccc(F)cc3F)CCC(F)(F)CC2)CC1` [compound 140, N-((4,4-Difluoro-1-(4-(propylsulfonyl)piperazin-1-yl)cyclohexyl)methyl)-2,4-difluorobenzamide Hydrochloride]: in test [1], the pIC50 was 6.71.
Take `CCCS(=O)(=O)N1CCN(C2(CNC(=O)c3ccc(Cl)cc3C)CCC(F)(F)CC2)CC1` [compound 153, 4-Chloro-N-((4,4-difluoro-1-(4-(propylsulfonyl)piperazin-1-yl)cyclohexyl)methyl)-2-methylbenzamide Hydrochloride]: the pIC50 in test [1] is 7.16.
On to `CCCS(=O)(=O)N1CCN(C2(CNC(=O)c3c(Cl)ccc(C(F)(F)F)c3Cl)CCC(F)(F)CC2)CC1` [compound 265, 2,6-Dichloro-N-((4,4-difluoro-1-(4-(propylsulfonyl)piperazin-1-yl)cyclohexyl)methyl)-3-(trifluoromethyl) benzamide Hydrochloride], for which the pIC50 in test [1] was 6.64.
